Reference: ChEMBL document CHEMBL3885881, “DrugMatrix”

Organism: Rattus norvegicus
Test: DrugMatrix - Regimen: Daily Repeat
Type: toxicity, organism-based, Sprague-Dawley
Set-up: regimen Daily Repeat, gender Male, age 6-8 weeks
Details: in vivo, po, 30 mg/kg, route oral GAVAGE, dose level Low, vehicle .5 % CMC; for ABSOLUTE BASOPHIL / ABSOLUTE EOSINOPHIL / ABSOLUTE LYMPHOCYTE / ABSOLUTE MONOCYTE / ABSOLUTE SEGMENTED NEUTROPHIL / BASOPHIL / EOSINOPHIL / ERYTHROCYTE COUNT / HEMATOCRIT / HEMOGLOBIN / LEUKOCYTE COUNT / LYMPHOCYTE / MEAN CORPUSCULAR HEMOGLOBIN / MEAN CORPUSCULAR HEMOGLOBIN CONCENTRATION / MEAN CORPUSCULAR VOLUME / MONOCYTE / NEUTROPHIL / NUCLEATED RED BLOOD CELLS / PLATELET COUNT: tissue Blood; for ALANINE AMINOTRANSFERASE / ALBUMIN / ALKALINE PHOSPHATASE / ASPARTATE AMINOTRANSFERASE / BLOOD UREA NITROGEN / CARBON DIOXIDE / CHLORIDE / CHOLESTEROL / CREATINE PHOSPHOKINASE / CREATININE / GLUCOSE / LACTATE DEHYDROGENASE / LIPASE / PHOSPHORUS / POTASSIUM / SODIUM / TOTAL BILIRUBIN / TOTAL PROTEIN / URIC ACID: tissue Plasma

Cc1c(OCC(F)(F)F)ccnc1C[S+]([O-])c1nc2ccccc2[nH]1 (stereo unspecified) [LANSOPRAZOLE]
ABSOLUTE BASOPHIL (72 h, time 3 day): 0 CELLS/uL
ABSOLUTE EOSINOPHIL (72 h, time 3 day): 38 CELLS/uL
ABSOLUTE LYMPHOCYTE (72 h, time 3 day): 11302.33 CELLS/uL
ABSOLUTE MONOCYTE (72 h, time 3 day): 38 CELLS/uL
ABSOLUTE SEGMENTED NEUTROPHIL (72 h, time 3 day): 588.33 CELLS/uL
BASOPHIL (72 h, time 3 day): 0%
EOSINOPHIL (72 h, time 3 day): 0.33%
ERYTHROCYTE COUNT (72 h, time 3 day): 5.49 x10E6/uL
HEMATOCRIT (72 h, time 3 day): 34.33%
HEMOGLOBIN (72 h, time 3 day): 12.9 G/DL
LEUKOCYTE COUNT (72 h, time 3 day): 11.97 x10E3/uL
LYMPHOCYTE (72 h, time 3 day): 94.33%
MEAN CORPUSCULAR HEMOGLOBIN (72 h, time 3 day): 23.47 pg
MEAN CORPUSCULAR HEMOGLOBIN CONCENTRATION (72 h, time 3 day): 37.53 G/DL
MEAN CORPUSCULAR VOLUME (72 h, time 3 day): 62.53 fL
MONOCYTE (72 h, time 3 day): 0.33%
NEUTROPHIL (72 h, time 3 day): 5%
NUCLEATED RED BLOOD CELLS (72 h, time 3 day): 0 /100WBC
PLATELET COUNT (72 h, time 3 day): 1374 x10E3/uL
ALANINE AMINOTRANSFERASE (72 h, time 3 day): 48.67 u/L
ALBUMIN (72 h, time 3 day): 4.03 G/DL
ALKALINE PHOSPHATASE (72 h, time 3 day): 333 u/L
ASPARTATE AMINOTRANSFERASE (72 h, time 3 day): 84.33 u/L
BLOOD UREA NITROGEN (72 h, time 3 day): 13.67 mg/dL
CARBON DIOXIDE (72 h, time 3 day): 25.33 mmol/L
CHLORIDE (72 h, time 3 day): 103 MEQ/L
CHOLESTEROL (72 h, time 3 day): 81.33 mg/dL
CREATINE PHOSPHOKINASE (72 h, time 3 day): 302.33 u/L
CREATININE (72 h, time 3 day): 0.28 mg/dL
GLUCOSE (72 h, time 3 day): 162 mg/dL
LACTATE DEHYDROGENASE (72 h, time 3 day): 455.33 u/L
LIPASE (72 h, time 3 day): 12 u/L
PHOSPHORUS (72 h, time 3 day): 14.17 mg/dL
POTASSIUM (72 h, time 3 day): 6.71 MEQ/L
SODIUM (72 h, time 3 day): 146.4 MEQ/L
TOTAL BILIRUBIN (72 h, time 3 day): 0.17 mg/dL
TOTAL PROTEIN (72 h, time 3 day): 5.57 G/DL
URIC ACID (72 h, time 3 day): 1.93 mg/dL
ABSOLUTE BASOPHIL (120 h, time 5 day): 0 CELLS/uL
ABSOLUTE EOSINOPHIL (120 h, time 5 day): 0 CELLS/uL
ABSOLUTE LYMPHOCYTE (120 h, time 5 day): 12566 CELLS/uL
ABSOLUTE MONOCYTE (120 h, time 5 day): 465.33 CELLS/uL
ABSOLUTE SEGMENTED NEUTROPHIL (120 h, time 5 day): 1302 CELLS/uL
BASOPHIL (120 h, time 5 day): 0%
EOSINOPHIL (120 h, time 5 day): 0%
ERYTHROCYTE COUNT (120 h, time 5 day): 5.54 x10E6/uL
HEMATOCRIT (120 h, time 5 day): 36.83%
HEMOGLOBIN (120 h, time 5 day): 13.67 G/DL
LEUKOCYTE COUNT (120 h, time 5 day): 14.33 x10E3/uL
LYMPHOCYTE (120 h, time 5 day): 87.67%
MEAN CORPUSCULAR HEMOGLOBIN (120 h, time 5 day): 24.73 pg
MEAN CORPUSCULAR HEMOGLOBIN CONCENTRATION (120 h, time 5 day): 37.17 G/DL
MEAN CORPUSCULAR VOLUME (120 h, time 5 day): 66.5 fL
MONOCYTE (120 h, time 5 day): 3.33%
NEUTROPHIL (120 h, time 5 day): 9%
NUCLEATED RED BLOOD CELLS (120 h, time 5 day): 0 /100WBC
PLATELET COUNT (120 h, time 5 day): 1375.67 x10E3/uL
ALANINE AMINOTRANSFERASE (120 h, time 5 day): 52.33 u/L
ALBUMIN (120 h, time 5 day): 4.3 G/DL
ALKALINE PHOSPHATASE (120 h, time 5 day): 288.67 u/L
ASPARTATE AMINOTRANSFERASE (120 h, time 5 day): 81 u/L
BLOOD UREA NITROGEN (120 h, time 5 day): 16.33 mg/dL
CARBON DIOXIDE (120 h, time 5 day): 22.33 mmol/L
CHLORIDE (120 h, time 5 day): 103.67 MEQ/L
CHOLESTEROL (120 h, time 5 day): 82 mg/dL
CREATINE PHOSPHOKINASE (120 h, time 5 day): 222.67 u/L
CREATININE (120 h, time 5 day): 0.33 mg/dL
GLUCOSE (120 h, time 5 day): 147 mg/dL
LACTATE DEHYDROGENASE (120 h, time 5 day): 157.67 u/L
LIPASE (120 h, time 5 day): 13 u/L
PHOSPHORUS (120 h, time 5 day): 12.33 mg/dL
POTASSIUM (120 h, time 5 day): 7.1 MEQ/L
SODIUM (120 h, time 5 day): 147.6 MEQ/L
TOTAL BILIRUBIN (120 h, time 5 day): 0.2 mg/dL
TOTAL PROTEIN (120 h, time 5 day): 6.07 G/DL
URIC ACID (120 h, time 5 day): 1.6 mg/dL
